Test results as given in patent US20160324770A1, “INTRATHECAL ADMINISTRATION, PREFERABLY INTRAVENTRICULAR, OF MTOR INHIBITORS FOR THE THERAPY OF SOME NEURODEGENERATIVE, NEUROINFLAMMATORY AND NEURO-ONCOLOGIC DISEASES” (priority 2012, published 2016).
Like-named read-outs stand apart in the source and are kept apart here.

Key:
[1] = system: Subependymal Giant Cell Astrocytomas (SEGAs); settings: systemic administration, cited from earlier work
[2] = system: p70-S6 kinase phosphorylation (measure of mTOR activity); assay: Western blot of p70S6K phosphorylation in brain, liver and spleen (verification of mTOR inhibition); type: in vivo, mice
Protocol: The frozen mouse tissues were homogenized in T-PER solution (Pierce) containing a cocktail of protease inhibitors (Sigma-Aldrich) and a cocktail of phosphatase inhibitors (Sigma-Aldrich). The homogenized samples were sonicated 3 times for 15 sec (amplitude of 10 microns) at 4° C. using an MSE soniprep 150 sonicator (Sanyo), and subsequently centrifuged at 4° C. for 30 minutes at 16000 g. The supernatant was recovered and the proteins quantified by means of a Bradford assay using BSA as the standard.
For the Western blot analysis, the proteins were separated by SDS-PAGE under reducing conditions according to the method of Laemmli. Subsequently, the proteins were transferred onto a PVDF membrane (Biorad), which was incubated with the following primary antibodies: anti-phospho-p70S6K (T^389), anti-phospho-p70S6K (S^371), anti-p70S6K (Cell Signaling) and anti-actin (Sigma-Aldrich). After being washed with TBS-Tween (50 mM Tris, pH 7.5, NaCl […] and 0.1% Tween 20), the membrane was incubated with one of the following secondary antibodies: anti-rabbit IgG conjugated to HRP (GE Healthcare) and anti-mouse IgG conjugated to HRP (GE Healthcare). The membrane was developed by means of ECL prime (GE Healthcare).
Verification of mTOR inhibition. We analyzed the actual inhibition of mTOR by WB. mTOR is a kinase with multiple substrates, one of which is p70-S6 kinase. Phosphorylation of the latter is unanimously considered a measure of mTOR activity.

[3] = Blood and brain concentrations and metabolites (LC-MS) after intraventricular (intracerebral) administration by osmotic pump; type: in vivo, mice
Excerpt: (§1) Intraventricular infusion: Under general anaesthesia obtained with Ketamine/Xylazine, Alzet osmotic pumps (http://www.alzet.com/products/guide_to_use/pump_selection.ht ml) were implanted subcutaneously on the back; a catheter leading from the pump reached the cranial vault, where it was connected to a connector (Brain Kit 3, Alzet) stereotaxically implanted in the cranium until reaching the lateral ventricle. These pumps are capable of infusing their content at a constant speed for 1-4 weeks.
A quantitative analysis of everolimus in blood and tissue samples was performed with the isotopic dilution method using the LC-MS technique. The chromatographic system was the following: Agilent 1290 Infinity HPLC equipped with a binary pump and HiP Auto Sampler model G4226A. The injection volume was 2 μL, the analytical column used was a Phenomenex Kinetics PFP UHPLC column (Phenomenex, Milan, Italy) […], 1.7 μm, 100 Å, temperature controlled at 55° C. A gradient elution was performed using as solvent A: water with 5 mM ammonium formiate, solvent B: methanol with 0.1% formic acid. The elution profile was the following: solvent A 30%/solvent B 70% for 3 minutes, solvent A 1%/solvent B 99% from 3 to 6 minutes, at a flow velocity of 0.25 mL/min. This setup enabled an elution time of 2.5 minutes. Every injection was preceded by a cycle of washing the injector system with methanol.
Mass spectrometry was conducted using a Q-TOF MS detector model G6540A (Agilent, Germany) equipped with a Dual AJS ESI (electrospray ionization interface) system. The instrument parameters were the following: sheath gas flow: […], sheath gas temperature: 300° C., gas flow: 6 L/min, gas temperature: 300° C., nebulizer pressure: 35 psi, ion spray voltage: 5500 V.
Both everolimus and the isotopic internal standard were detected as ammonium adducts in the positive ion mode.
Everolimus was extracted from whole blood in 1 mL of a methanol solution containing 10% ammonium acetate in order to enable precipitation of most of the serum protein.
The blood samples were freeze-dried and subsequently extracted. The extraction process was carried out in a sonication bath for approx. 10 minutes to ensure complete haemolysis and release of the drug from the cell material.
The process of extraction from brain samples, divided into right and left hemispheres, was similar to the one for whole blood. The tissue samples were weighed and subsequently freeze-dried. After freeze-drying the samples were finely chopped to facilitate subsequent extraction. 1 mL of the methanol solution was then added to 1% v/v of ammonium formiate with 200 ng/mL of internal standard. The samples were then subjected to 10 minutes of sonication and vortexed to ensure complete extraction of the drug. Then followed centrifugation (10 minutes, 4000 rpm, 10° C.) and the supernatant was separated from the pellet. As previously described, the solutions were purified by means of HybridSPE®-Phospholipid solid-phase extraction cartridges with a total volume of 1 ml (Sigma Aldrich, Milan) to eliminate the excess lipid material. The samples were then immediately submitted to LC-MS analysis.
(§2) We then decided to look for the maximum tolerable dose by intraventricular administration of everolimus at concentrations 10 times higher than those shown in Table 1: A=25 mg/Kg, B=12.5 mg/Kg, C=[…].
Though they could not be quantified, the presence of metabolites deriving from the transformation of the drug has been noted in the table.

[4] = mouse, in vivo, 25 mg/kg
Excerpt: as §1, §2
Therefore, that dose was ruled out and the mice were sacrificed. […] For the subsequent assessment of therapeutic effectiveness in the different animal models, dose B (12.5 mg/Kg) was selected.

[5] = dose A=25 mg/Kg intraventricular, treated 3 days
[6] = dose B=12.5 mg/Kg intraventricular, treated 14 days
[7] = dose C=6.125 mg/Kg intraventricular, treated 14 days

Question: For `CO[C@H]1C[C@@H]2CC[C@@H](C)[C@@](O)(O2)C(=O)C(=O)N2CCCC[C@H]2C(=O)O[C@H]([C@H](C)C[C@@H]2CC[C@@H](OCCO)[C@H](OC)C2)CC(=O)[C@H](C)/C=C(\C)[C@@H](O)[C@@H](OC)C(=O)[C@H](C)C[C@H](C)/C=C/C=C/C=C/1C` [everolimus], which “Study endpoint (volumetric reduction in SEGAs)” value ([1]; 28 patients affected by TS) is on record?
Answer: Its value is “reached the endpoint”.

Question: And the “Severity grade of adverse reactions” value ([1]; many adverse reactions, most of infectious origin)?
Answer: The value was 1-3.

Question: What about the “Inhibition of mTOR as shown by WB” value ([2]; intrathecal treatment) of the same compound?
Answer: The value was “local, but not systemic, inhibition of mTOR”.

Question: What about the “Phosphorylation state of p70-S6 kinase in the brain vs controls” value ([2]; selected dose (12.5 mg/Kg) intraventricular, brain, FIG. 1) of the same compound?
Answer: Its value is “less phosphorylated form than in the controls”.

Question: And the “Phosphorylation state of p70-S6 kinase in the spleen and liver” value ([2]; selected dose (12.5 mg/Kg) intraventricular, spleen and liver, FIG. 1)?
Answer: Its value is “normally phosphorylated”.

Question: And the Metabolites ([3]; dose A, brain field T8 dx)?
Answer: Its Metabolites is “No metabolites”.

Question: What about the Metabolites ([3]; dose A, brain field T9 sx) of the same compound?
Answer: Its Metabolites is “No metabolites”.

Question: And the “Brain Conc” value [3, 5]?
Answer: The value was 20.4 ng/g.

Question: And the “Conc/250 mg brain, Left hemisphere” value [3, 5]?
Answer: Its value is 4.9 ± 2.3 /250 mg brain.

Question: What about the “Conc/250 mg brain, Right hemisphere” value [3, 5] of the same compound?
Answer: Its value is 5.3 ± 2.8 /250 mg brain.

Question: What about the Metabolites ([3]; dose B, brain field T5- dx) of the same compound?
Answer: Its Metabolites is “No metabolites”.

Question: What about the Metabolites ([3]; dose B, brain field T6 sx) of the same compound?
Answer: The Metabolites was “No metabolites”.

Question: What about the “Brain Conc” value [3, 6] of the same compound?
Answer: Its value is 12 to 16 ng/g.

Question: And the “Conc/250 mg brain, Left hemisphere” value [3, 6]?
Answer: Its value is 2.91 ± 0.8 /250 mg brain.

Question: And the “Conc/250 mg brain, Right hemisphere” value [3, 6]?
Answer: The value was 3.1 ± 1.6 /250 mg brain.

Question: What about the Metabolites ([3]; dose C, brain field T1- dx) of the same compound?
Answer: The Metabolites was “No metabolites”.

Question: What about the Metabolites ([3]; dose C, brain field T1- sx) of the same compound?
Answer: The Metabolites was “No metabolites”.

Question: What about the Metabolites ([3]; dose C, brain field T2- dx) of the same compound?
Answer: Its Metabolites is “No metabolites”.

Question: What about the Metabolites ([3]; dose C, brain field T2- sx) of the same compound?
Answer: Its Metabolites is “No metabolites”.

Question: And the “Brain Conc” value [3, 7]?
Answer: The value was 11.8 ng/g.

Question: What about the “Conc/250 mg brain, Left hemisphere” value [3, 7] of the same compound?
Answer: The value was 2.5 ± 0.2 /250 mg brain.

Question: What about the “Conc/250 mg brain, Right hemisphere” value [3, 7] of the same compound?
Answer: Its value is 3.4 ± 0.7 /250 mg brain.

Question: What about the concentration at 3 days ([3]; mouse, whole blood, other: intraventricular infusion by osmotic pump, dose A=25 mg/Kg intraventricular, treated 3 days, read-out: Conc, Blood) of the same compound?
Answer: Its concentration at 3 days is < 1000 ng/g.

Question: And the concentration at 14 days ([3]; mouse, whole blood, other: intraventricular infusion by osmotic pump, dose B=12.5 mg/Kg intraventricular, treated 14 days, read-out: Conc, Blood)?
Answer: The concentration at 14 days was < 1000 ng/g.

Question: And the concentration at 14 days ([3]; mouse, whole blood, other: intraventricular infusion by osmotic pump, dose C=6.125 mg/Kg intraventricular, treated 14 days, read-out: Conc, Blood)?
Answer: The concentration at 14 days was < 1000 ng/g.

Question: What about the Tolerability observations [4] of the same compound?
Answer: Its Tolerability observations is “reduction in spontaneous motility and a very slight weight reduction”.
